From US20160296529A1, “AMINOTRIAZOLOPYRIDINE FOR USE IN THE TREATMENT OF INFLAMMATION, AND PHARMACEUTICAL COMPOSITIONS THEREOF” (priority 2012, published 2016)

Test system: rat CIA model
Assay: CIA model 1 (rat collagen induced arthritis, clinical score)
Format: in vivo, Dark Agouti rats
Set-up: key to Rat CIA Clinical Score: sum of 4 paws, each 0 = no symptoms to 4 = maximal; max 16
Conditions: for activity in the CIA rat model: dosed alone
Protocol: Complete Freund's adjuvant (CFA) and Incomplete Freund's adjuvant (IFA) were purchased from Difco. Bovine collagen type II (CII), lipopolysaccharide (LPS), and Enbrel® was obtained from Chondrex (Isle d'Abeau, France); Sigma (P4252, L'Isle d'Abeau, France), Whyett (25 mg injectable syringe, France), Acros Organics (Palo Alto, Calif.), respectively. All other reagents used were of reagent grade and all solvents were of analytical grade.
Dark Agouti rats (male, 7-8 weeks old) were obtained from Harlan Laboratories (Melderslo, Netherlands). Rats were kept on a 12 hr light/dark cycle (0700-1900). Temperature was maintained at 22° C., and food and water were provided ad libitum.
One day before the experiment, CII solution (2 mg/mL) was prepared with 0.05 M acetic acid and stored at 4° C. Just before the immunization, equal volumes of adjuvant (IFA) and CII were mixed by a homogenizer in a pre-cooled glass bottle in an ice water bath. Extra adjuvant and prolonged homogenization may be required if an emulsion was not formed. 0.2 mL of the emulsion was injected intradermally at the base of the tail of each rat on day 1, a second booster intradermal injection (CII solution at 2 mg/mL in CFA 0.1 mL saline) was performed on day 9. This immunization method was modified from published methods (Sims et al, 2004; Jou et al., 2005).
The therapeutic effects of the compounds were tested in the rat CIA model. Rats were randomly divided into equal groups and each group contained 10 rats. All rats were immunized on day 1 and boosted on day 9. Therapeutic dosing lasts from day 16 to day 30. The negative control group was treated with vehicle (MC 0.5%) and the positive control group with Enbrel® (10 mg/kg, 3× week., s.c.). A compound of interest was typically tested at 3 doses, e.g. 6, 10, 60 mg/kg, q.d., p.o.
Arthritis was scored according to the method of Khachigian 2006, Lin et al 2007 and Nishida et al. 2004). The swelling of each of the four paws was ranked with the arthritic score as follows: 0—no symptoms; 1—mild, but definite redness and swelling of one type of joint such as the ankle or wrist, or apparent redness and swelling limited to individual digits, regardless of the number of affected digits; 2—moderate redness and swelling of two or more types of joints; 3—severe redness and swelling of the entire paw including digits; 4—maximally inflamed limb with involvement of multiple joints (maximum cumulative clinical arthritis score 16 per animal) (Nishida et al., 2004).
To permit the meta-analysis of multiple studies the clinical score values were normalised as follows:
AUC of clinical score (AUC score): The area under the curve (AUC) from day 1 to day 14 was calculated for each individual rat. The AUC of each animal was divided by the average AUC obtained for the vehicle in the study from which the data on that animal was obtained and multiplied by 100 (i.e. the AUC was expressed as a percentage of the average vehicle AUC per study).
Clinical score increase from day 1 to day 14 (End point score): The clinical score difference for each animal was divided by the average clinical score difference obtained for the vehicle in the study from which the data on that animal was obtained and multiplied by 100 (i.e. the difference was expressed as a percentage of the average clinical score difference for the vehicle per study).

SMILES	normalized clinical score values (calculated as AUC or as the difference from day 1 to day 14) (60 mg/kg)	Rat CIA Clinical Score (Formula I 60 mg/kg, day 18)	Rat CIA Clinical Score (Formula I 60 mg/kg, day 19)	Rat CIA Clinical Score (Formula I 60 mg/kg, day 20)	Rat CIA Clinical Score (Formula I 60 mg/kg, day 21)	Rat CIA Clinical Score (Formula I 60 mg/kg, day 24)	Rat CIA Clinical Score (Formula I 60 mg/kg, day 25)	Rat CIA Clinical Score (Formula I 60 mg/kg, day 26)	Rat CIA Clinical Score (Formula I 60 mg/kg, day 27)	Rat CIA Clinical Score (Formula I 60 mg/kg, day 28)	activity in the CIA rat model	Rat CIA Clinical Score (Formula II 6 mg/kg, day 18)	Rat CIA Clinical Score (Formula II 6 mg/kg, day 19)	Rat CIA Clinical Score (Formula II 6 mg/kg, day 20)	Rat CIA Clinical Score (Formula II 6 mg/kg, day 21)	Rat CIA Clinical Score (Formula II 6 mg/kg, day 24)	Rat CIA Clinical Score (Formula II 6 mg/kg, day 25)	Rat CIA Clinical Score (Formula II 6 mg/kg, day 26)	Rat CIA Clinical Score (Formula II 6 mg/kg, day 27)	Rat CIA Clinical Score (Formula II 6 mg/kg, day 28)
Nc1nc2cccc(-c3ccc(CN4CCS(=O)(=O)CC4)cc3)n2n1 [Formula I, 5-[4-(1,1-Dioxothiomorpholin-4-ylmethyl)-phenyl]-[1,2,4]triazolo[1,5-a]pyridin-2-ylamine]	statistically significant improvements	2.9	4.4	5.0	3.9	4.5	4.3	3.8	3.7	3.3	active	–	–	–	–	–	–	–	–	–
O=C(Nc1nc2cccc(-c3ccc(CN4CCS(=O)(=O)CC4)cc3)n2n1)C1CC1 [Formula II, Cyclopropanecarboxylic acid {5-[4-(1,1-dioxo-thiomorpholin-4-ylmethyl)-phenyl]-[1,2,4]triazolo[1,5-a]pyridin-2-yl}-amide]	–	–	–	–	–	–	–	–	–	–	active	3.0	3.6	4.2	5.1	5.2	5.1	4.9	5.2	5.4
